Results on one compound are retold here after US20230357275A1, “SPIRO-SULFONAMIDE DERIVATIVES AS INHIBITORS OF MYELOID CELL LEUKEMIA-1 (MCL-1) PROTEIN” (Prelude Therapeutics, Incorporated, priority 2020, published 2023).

pIC50, pKi: −log10 of the molar value.

For one assay, the target named is T1, MCL-1 (Homo sapiens, UniProt Q07820).
T1 construct: purchased BPS Bioscience
Put plainly: Cell free Mcl-1:Bim affinity assay (Mcl-1 Bim), fluorescence polarization competition. Type of assay: binding. The settings on record: 15 nM MCL-1, 5 nM FITC-Bim tracer, 1 hour at room temperature; Ki calculated from IC50 by Nikolovska-Coleska's equation; read-out: BIM_ Ki. How it is done:
The binding affinity of each compound was measured via a fluorescence polarization competition assay, in which the compound competes for the same binding site with the ligand, and thus leads to a dose-dependent anisotropy reduction. The tracer ligand utilized was a fluorescein isothiocyanate labelled peptide (FITC-[…]) derived from Bim (GenScript).
The assay was carried out in black half-area 96-well NBS plate (Coming), containing 15 nM of MCL-1 (BPS Bioscience), 5 nM of FITC-Bim and 3-fold serial diluted test compounds in a total volume of 50 µL of assay buffer (20 mM HEPES, 50 mM NaCl, 0.002% Tween 20, 1 mM TCEP, and 1% DMSO). The reaction plate was incubated for 1 hour at room temperature. The change of anisotropy is measured with an Envision multimode plate reader (PerkinElmer) at emission wavelength 535 nm. Fluorescence polarization was calculated in mP unit and the percentage inhibition was calculated by % inhibition = 100x(mPDMSO-mP)/(mPDMSO-mPPC), in which mPDMSO is the DMSO control, and mPPC is the positive control. IC50 values were determined from a 10-point dose response curve by fitting the percent inhibition against compound concentration using the GraphPad Prism software. The inhibition constant Ki was subsequently calculated according to the Nikolovska-Coleska’s equation (Anal. Biochem., 2004, 332, 261), […]

The subject of a further assay is H929 cells. Put plainly: Cell viability assay (H929 10 FBS). The assay is classed as cell-based. The settings on record: Homo sapiens, NCI-H929, 24 hours, CellTiTer-Glo or ATPlite, read-out: H929_10FB S IC50. How it is done:
Dispense 10 µL aliquot of prepared H929 cells (1:1 ratio of cells:Trypan Blue (#1450013, Bio-Rad)) onto cell counting slide (#145-0011, Bio-Rad) and obtain cell density and cell viability using cell counter (TC20, Bio-Rad). Remove appropriate volume of resuspended cells from culture flask to accommodate 4000 cells/well @ 10 µL/well. Transfer H929 cells to 50 mL conical (#430290, Corning). Spin down at 1000 rpm for 5 min using tabletop centrifuge (SPINCHRON 15, Beckman). Discard supernatant and resuspend cell pellet in modified RPMI 1640 (#10-040-CV, Coming) cell culture media containing 10% FBS (F2422-500 ML, Sigma), sodium pyruvate (100 mM) (#25-000-CL, Corning), HEPES buffer (1 M) (#25-060-CL, Coming) and glucose (200 g/L) (A24940-01, Gibco) to a cell density of 400,000 cells/mL. Dispense 10 µL of resuspended H929 cells per well in 384-well small volume TC treated plate (#784080, Greiner Bio-one) using standard cassette (#50950372, Thermo Scientific) on Multi-drop Combi (#5840310, Thermo Scientific) in laminar flow cabinet. Dispense compounds onto plates using digital liquid dispenser (D300E, Tecan). Incubate plates in humidified tissue culture incubator @ 37° C. for 24 hours. […] Read plates with microplate reader (PheraStar, BMG Labtech) using 384 well luminescence mode.

T1 sequence (Q07820 whole entry): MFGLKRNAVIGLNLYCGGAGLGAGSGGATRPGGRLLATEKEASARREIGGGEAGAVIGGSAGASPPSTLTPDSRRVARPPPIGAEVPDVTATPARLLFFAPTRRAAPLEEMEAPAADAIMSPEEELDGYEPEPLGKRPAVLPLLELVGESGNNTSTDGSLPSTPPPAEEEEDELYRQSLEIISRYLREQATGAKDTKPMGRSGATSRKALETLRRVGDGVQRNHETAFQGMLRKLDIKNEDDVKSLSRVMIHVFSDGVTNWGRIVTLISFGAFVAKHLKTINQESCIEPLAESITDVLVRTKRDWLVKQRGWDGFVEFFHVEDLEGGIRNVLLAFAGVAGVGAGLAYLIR

As to `CN(C)C(=O)O[C@H]1/C=C/COC(C)(C)C(=O)NS(=O)(=O)c2ccc3c(c2)N(C[C@@H]2CC[C@H]21)C[C@@]1(CCCc2cc(Cl)ccc21)CO3` [Example 34, [(3R,6R,7S,8E,22S)-6′-Chloro-12,12-dimethyl-13,15,15-trioxo-spiro [11,20-dioxa-15-thia-1,14-diazatetracyclo[14.7.2.03,6.019,24]pentacosa-8,16,18,24-tetraene-22,1′-tetralin]-7-yl] N,N-dimethylcarbamate], the pKi at MCL-1 was > 9.00. For the same compound, the negative logarithm of the IC50 (pIC50) with H929 cells was > 6.30.
